{
  "source": "patent US20170368134A1",
  "about": "“PROTEASOME INHIBITORS FOR TREATING A DISORDER RELATED TO AN ACCUMULATION OF NON-DEGRADED ABNORMAL PROTEIN OR A CANCER” (UNIVERSITÉ D'AIX-MARSEILLE, priority 2015, published 2017)",
  "key": {"LC3B-II": {"test_system": "LC3B-II", "experiment": "Western blot of LC3B-II (autophagy level) in HGPS fibroblasts", "type": "cell-based, human", "conditions": "HGPS fibroblasts following MG132 treatment", "protocol": "Total fibroblast proteins were extracted in 200 μL of NP40 Cell Lysis buffer (Invitrogen, Carlsbad, Calif.) containing Protease and Phosphatase Inhibitor Cocktail (Thermo Scientific). Alternatively, cells were lysed with urea (8 M urea, 5 mM dithiothreitol, 150 mM NaCl, 50 mM Tris-Cl pH 7.5, protease and phosphatase Inhibitor Cocktail (Thermo Scientific)). Cells were sonicated twice (30 sec each), incubated at 4° C. for 30 minutes and then centrifuged at 10,000 g for 10 minutes. Protein concentration was evaluated with the bicinchoninic acid technique (Pierce BCA Protein Assay Kit), absorbance at 562 nm is measured using nanodrop 1000 (Thermo Fisher Scientific Inc.) Equal amounts of proteins (40 μg) were loaded onto 10% Tis-Glycine gel (Criterion™ XT precast gel) using XT Tricine running Buffer (Biorad, USA). After electrophoresis, gels were electro transferred onto nitrocellulose membranes or Immobilon-FL polyvinylidene fluoride membranes (Millipore), blocked in Odyssey Blocking Buffer diluted 1:1 in PBS for 1 hour at room temperature, and incubated overnight at 4° C. or 2 hours at room temperature with various primary antibodies. […]"}, "progerin mRNA": {"test_system": "progerin mRNA", "experiment": "qRT-PCR of progerin transcripts in HGPS fibroblasts", "type": "cell-based, human", "conditions": "10 μM MG132, time dependent, relative to DMSO", "protocol": "(§1) Total RNA was isolated using the RNeasy plus extraction kit (Qiagen, Valencia, Calif.). 1 μg of RNA was reverse transcribed using the High Capacity cDNA Reverse Transcription Kit (Applied Biosystems). Real time PCR amplification was carried out with the TaqMan® Gene Expression Master Mix (Applied Biosystems) on a LightCycler 480 (Roche, Germany) using pre-designed primers for GAPDH (Hs00266705_g1), Progerin (F: […] (SEQ ID NO:3) R: […] (SEQ ID NO:4) and probe: […] (SEQ ID NO:5)), Lamin A (F: […] (SEQ ID NO:6) R: […] (SEQ ID NO:7) and probe: […] (SEQ ID NO:8)) and lamin C (F: […] (SEQ ID NO:9) R: […] (SEQ ID NO:10) and probe: […] (SEQ ID NO:11)) (Applied Biosystems) using the program: UNG incubation at 50° C. for 2 minutes, initial denaturation at 95° C. for 10 minutes, 40 cycles of amplification: denaturation at 95° C. for 15 seconds and annealing at 60° C. for 1 minute. All PCR reactions were performed in triplicate. Threshold cycle (Ct) values were used to calculate relative mRNA expression by the 2-ΔΔ^T relative quantification method with normalization to GAPDH expression."}, "lamin A mRNA": {"test_system": "lamin A mRNA", "experiment": "qRT-PCR of lamin A transcripts in HGPS cells", "type": "cell-based, human", "conditions": "10 μM MG132 time-course", "protocol": "as §1"}, "HGPS cell lines": {"test_system": "HGPS cell lines", "experiment": "Quantitation of abnormal nuclear morphology", "type": "cell-based, human", "conditions": "10 μM MG132, 48 h", "protocol": "The percentage of normal nuclei (nuclei with a smooth oval shape) and abnormal nuclei (nuclei with blebs, irregular shape, or multiple folds) was calculated by manual blind counting. A representative image and the mean values of 3 different experiments are shown. *P<0.05.\nFibroblasts from three HGPS patients (AG01972, AG11498, 5968) and two normal individuals (8471, 8498) were cultured with DMEM medium containing 10 μM MG132, or the same volume of vehicle (DMSO, 0.025% v/v) for 48 h. Cells stained for lamin A/C or DAPI were examined by fluorescence microscopy with an Axioplan 2 imaging microscope (Carl Zeiss). For quantitation of abnormal nuclear morphology, the percentage of normal nuclei (nuclei with a smooth oval shape) and abnormal nuclei (nuclei with blebs, irregular shape, or multiple folds) was calculated by manual blind counting. At least 200 fibroblast nuclei were randomly selected for each cell line and examined in two independent experiments. Results are expressed graphically as the average percentage of the total nuclei counted."}, "[1]": {"test_system": "HGPS fibroblasts, HGPS derived iPS-MSC or iPS-VSMC", "experiment": "CellTiter-Glo Luminescent Cell Viability Assay", "type": "cell-based, human", "conditions": "24 h, doses used in this study", "protocol": "HGPS fibroblasts, HGPS derived iPS-MSC or iPS-VSMC viability was measured at 24 h post treatment with MG132 at the indicated concentrations using CellTiter-Glo Luminescent Cell Viability Assay. Results are reported as viability percentage of MG132-treated cells relative to untreated cells."}, "progerin": {"test_system": "progerin", "experiment": "Intramuscular MG132 in Lmna G609G/G609G mice, progerin in gastrocnemius muscle", "type": "in vivo, mouse", "protocol": "(A) Lamin A, progerin, lamin C and SRSF-1 specific bands, corresponding to DMSO-treated left muscle (−) and 1 μg/Kg MG132-treated right muscle (+), were quantified by ImageJ software and their expression levels were normalized to GAPDH values.\nKnock-in mouse model (Lmna^G609G/G609G) carrying the c.1827C>T (p.Gly609Gly) mutation in the endogenous Lmna gene, corresponding to the human HGPS mutation c.1824C>T (p.Gly609Gly) have been described previously (31). MG132 (1 or 10 μg/Kg body weight) was injected under isoflurane anesthesia into the right gastrocnemius muscle of […] homozygous knock-in mice (Lmna^G609G/G609G) 3 times per week for 2 weeks. Contralateral muscle served as control (DMSO). MG132 was dissolved in dimethyl sulfoxide (DMSO) and then diluted in 100 μl sterile phosphate-buffered saline (PBS) for intramuscular injection. […] Animal experiments have been carried out in compliance with the European guidelines for the care and use of laboratory animals (EU directive 2010/63/EU) and in accordance with the recommendations provided by the guide for the care and use of the laboratory animals of the French national Institute for Health and Medical Research (INSERM) and the ethical committee of Aix-Marseille University."}},
  "note": "Peptide text beside a SMILES is read from it. * marks the point of attachment. Cbz = O=C(OCc1ccccc1)*",
  "data": [
    {"compound": "CC(C)C[C@@H](C=O)NC(=O)[C@H](CC(C)C)NC(=O)[C@H](CC(C)C)NC(=O)OCc1ccccc1", "note": "[MG132, Z-Leu-Leu-Leu-al] (Cbz-Leu-Leu-Leu-aldehyde)", "values": [
      {"measurement": "LC3B-II levels", "setting": "LC3B-II", "result": "increased"},
      {"measurement": "progerin mRNA expression", "setting": "progerin mRNA", "result": "almost extinguished progerin mRNA expression"},
      {"measurement": "lamin A transcript levels", "setting": "lamin A mRNA", "result": "significant decrease of lamin A transcripts"},
      {"measurement": "nuclear shape abnormalities", "setting": "HGPS cell lines", "result": "improves nuclear shape abnormalities"},
      {"measurement": "viability / mortality", "setting": "[1]", "result": "do not induce significant mortality"},
      {"measurement": "progerin level in treated muscle", "setting": "progerin; 1 μg/Kg intramuscular, 3 times per week for 2 weeks, vs contralateral muscle", "result": "significant decrease of progerin level"},
      {"measurement": "progerin level in treated muscle", "setting": "progerin; 10 μg/kg body weight intramuscular", "result": "significant decrease of progerin levels"}
    ]}
  ]
}
